Where two headings read alike, the source gives them in different places.
What was measured:
[1] = target: T1, EV71 3D^pol (Human enterovirus 71, UniProt Q66478); assay: Isothermal titration calorimetry with EV71 3Dpol; assay type: binding
T1 construct: EV71 3D^pol was cloned into the pET28a expression vector with a His tag at the N terminus; His tag (N); made in house; host or cells: E. coli BL21-derived cells
Method: (§1) EV71 3D^pol was cloned into the pET28a expression vector with a His tag at the N terminus and expressed in E. coli BL21-derived cells. The 3D^pol protein was purified by Ni-column affinity chromatography, and a gel filtration column was connected to an ÄKTA system (General Electric Company, CT, USA). The purity of the resulting 3D^pol protein was determined through SDS-PAGE analysis.
ITC experiments were performed by using an ITC200 instrument (MicroCal, Inc., Northampton, MA, USA). The concentration of 3D^pol was 100 μM. FNC was diluted with buffer (pH 7.5, 25 mM HEPES, 100 mM NaCl) to yield a solution of 1.0 mM. The sample cell was filled with 3D^pol protein solution, and FNC was added by syringe at 25°C. The stirring rate was 750 r/min. All data were analyzed using the Origin 7.0 software.

[2] = system: EV71; design: method as in PMID 18279075; conditions: RD cells, virus-induced CPE assay ref 27; read-out: 50% effective concentration (EC50) against EV71; cited from earlier work
[3] = system: influenza A(H1N1) virus; assay: Anti-influenza A(H1N1) activity in MDCK cells (Western blot, RT-qPCR); assay type: cell-based
[4] = system: CA16 CC045; assay: Lethal CA16 challenge, neonatal mouse model; assay type: in vivo, ICR neonatal mice
Method: (§2) One-day-old specific pathogen-free (SPF) ICR neonatal mice (Beijing Institute of Radiation Medicine) were used to establish the animal model of viral infection. All welfare and experimental procedures were carried out strictly in accordance with the Guide for the Care and Use of Laboratory Animals and the related ethical regulations of the Beijing Institute of Radiation Medicine. All efforts were made to minimize animal suffering. The neonatal mice were randomly divided into five groups, and each group contained three litters (n = 8 to ∼10 per litter). One group was inoculated intracerebrally with DMEM (10 μl/mouse) and after 1 h injected intraperitoneally with DMSO (control group). Two groups were inoculated intracerebrally with EV71 CC063 (10^5.5 CCID50 ml^−1) and after 1 h injected intraperitoneally with FNC or DMSO. Two groups were inoculated intracerebrally with CA16 CC045 (10^2.7 CCID50 ml^−1) and after 1 h injected intraperitoneally with FNC or DMSO. The survival rates and mean clinical symptoms were monitored daily for 15 days postinfection. The mean clinical symptoms were scored as follows: 0, healthy; 1, lethargy or weakness; 2, wasting; 3, limb tremors; 4, paralysis in hind limb; and 5, moribund or dead. The control mice were healthy throughout the experiments.
After intracerebral inoculation with EV71 CC063 viruses, CA16 CC045 viruses, or culture medium, three experimental neonatal mice and three control neonatal mice were subjected to viral load detection. The EV71 infection and control groups were collected on day 9 postinfection, and the CA16 infection and control groups were collected on day 14 postinfection. All tissues, including brain, lung, spine skeletal muscle, and hind-limb muscle, were weighed individually, homogenized in sterile PBS, disrupted by freeze-thawing, and centrifuged. The samples were treated with TRIzol (Invitrogen) for RNA extraction and viral load determination by real-time PCR, as described previously ([42]). Viral loads were determined by real-time PCR and expressed as log10 copies/mg tissue. […]

[5] = system: EV71 CC063; assay: Lethal EV71 challenge, neonatal mouse model; assay type: in vivo, ICR neonatal mice
Method: as §2
After intracerebral inoculation with EV71 CC063 viruses, CA16 CC045 viruses, or culture medium, three experimental neonatal mice and three control neonatal mice were subjected to viral load detection. The EV71 infection and control groups were collected on day 9 postinfection, and the CA16 infection and control groups were collected on day 14 postinfection. All tissues, including brain, lung, spine skeletal muscle, and hind-limb muscle, were weighed individually, homogenized in sterile PBS, disrupted by freeze-thawing, and centrifuged. The samples were treated with TRIzol (Invitrogen) for RNA extraction and viral load determination by real-time PCR, as described previously ([42]). Viral loads were determined by real-time PCR and expressed as log10 copies/mg tissue.
A total of 15 mice were sampled, as follows: three normal mice from the mock-infected group (the clinical score of grade 0), three mice from the EV71-infected and DMSO-treated group (the clinical score of grade 4), three mice from the CA16-infected and DMSO-treated group (the clinical score of grade 3), three mice from the EV71-infected and FNC-treated group (the clinical score of grade 3), and three mice from the CA16-infected and FNC-treated group (the clinical score of grade 1). After the mice were anesthetized, lung, brain, spine skeletal muscle, and hind-limb muscle tissues were harvested and immersion fixed with 10% formaldehyde solution for 5 days. […]

[6] = target: T1, EV71 3D^pol; assay: Fluorescence-based activity assay for EV71 3Dpol; assay type: biochemical; conditions: poly(A)/UTP, SYTO 9, 30°C
Method: as §1
We followed the novel fluorescence-based method for the detection of polymerase activity of EV71 3D^pol ([52]). Reactions were performed in individual wells of black 96-well flat-bottom plates. The standard reaction contained 50 mM Tris-HCl (pH 7.5), 2.5 mM MnCl2, 100 μM UTP, 40 μg/ml poly(A), 0.1 mg/ml bovine serum albumin (BSA), and 0.25 μM SYTO 9. Different concentrations of FNC were added to the reaction mixtures. The assay was initiated by the addition of EV71 3D^pol, and the fluorescence was recorded at 30°C.

[7] = system: RD cells; assay: Cytotoxicity, CCK-8 cell viability assay in RD cells; assay type: cell-based, human; conditions: 48 h
Method: (§3) The cells were treated with various concentrations of compounds dissolved in DMSO for 48 h, and then cell viability was assayed using a Cell Counting kit‑8 (CCK-8; Beyotime, Shanghai, China). In brief, 10 μl of the CCK‑8 solution was added, and the cells were incubated for an additional 2 h. Medium without cells was used as a blank control. Absorbance at a wavelength of 450 nm was measured using a microplate reader. Cell viability was determined as a percentage of that of the control. All cell proliferation assays were performed in triplicate and repeated in three independent experiments.

[8] = as above; assay type: cell-based, human; conditions: human
Method: as §3

[9] = system: deoxycytidine kinase; design: method as in PMID 18003608; conditions: substrate for deoxycytidine kinase ref 32; cited from earlier work
[10] = system: CA6; assay: Anti-CA6 activity in infected RD cells (RT-qPCR); conditions: read-out: EC50 for CA6
[11] = system: EVD68; assay: Anti-EVD68 activity in infected RD cells (RT-qPCR); conditions: Enterovirus D, read-out: EC50 for EVD68
[12] = system: EV71, CA16, CA6, CVB3, and EVD68; assay: Antiviral activity against a variety of enteroviruses in RD cells
[13] = system: CVB3; assay: Anti-CVB3 activity in infected RD cells (RT-qPCR); conditions: Enterovirus B, read-out: EC50 for CVB3
[14] = system: MDCK cells; assay: Cytotoxicity, CCK-8 cell viability assay in MDCK cells; assay type: cell-based; conditions: 48 h
Method: as §3

[15] = system: CA16; assay: Anti-CA16 activity in infected RD cells (RT-qPCR); conditions: Enterovirus A, read-out: EC50 for CA16
[16] = system: EV71; assay: Anti-EV71 activity in infected RD cells (Western blot, RT-qPCR, virus titer)
[17] = system: HEK293T cells; assay: Cytotoxicity, CCK-8 cell viability assay in HEK293T cells; assay type: cell-based; conditions: 48 h
Method: as §3

[18] = system: RSV; assay: Anti-RSV activity in HEK293T cells (Western blot, RT-qPCR); assay type: cell-based, respiratory syncytial virus; conditions: MOI 0.5, 48 h, safe drug concentrations
[19] = vs DMSO treatment group, P < 0.05

T1 sequence (Q66478 1732-2193): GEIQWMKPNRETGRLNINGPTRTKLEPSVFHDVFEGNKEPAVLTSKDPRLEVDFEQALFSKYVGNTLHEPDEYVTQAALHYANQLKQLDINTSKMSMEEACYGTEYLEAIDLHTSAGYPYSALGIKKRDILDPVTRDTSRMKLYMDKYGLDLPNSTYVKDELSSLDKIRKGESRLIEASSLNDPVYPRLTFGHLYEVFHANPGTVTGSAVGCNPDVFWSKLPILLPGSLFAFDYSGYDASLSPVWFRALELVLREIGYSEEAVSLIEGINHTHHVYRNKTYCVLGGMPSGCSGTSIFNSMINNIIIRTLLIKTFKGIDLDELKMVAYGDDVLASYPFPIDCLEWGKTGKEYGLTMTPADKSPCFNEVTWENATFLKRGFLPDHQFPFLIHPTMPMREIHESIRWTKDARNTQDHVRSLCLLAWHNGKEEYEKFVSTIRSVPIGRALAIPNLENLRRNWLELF

NC(=O)c1ncn([C@@H]2O[C@H](CO)[C@@H](O)[C@H]2O)n1 [ribavirin]
interaction with EV71 3Dpol by ITC ([1]; ITC, 25°C, 3 mM ribavirin into 100 μM 3Dpol): failed to observe the interaction
EC50 [2]: 266 µM

[N-]=[N+]=N[C@]1(CO)O[C@@H](n2ccc(N)nc2=O)[C@@H](F)[C@@H]1O [FNC, 2'-deoxy-2'-β-fluoro-4'-azidocytidine]
effect on H1N1 replication (viral proteins, RNA) [3]: no inhibitory effect
tissue damage, H&E histology ([4]; CA16-infected brain, spinal skeletal muscle, hind-limb muscle): significantly reduced the damage
mortality ([4]; CA16 CC045 intracerebral, 1-day-old mice, 1 mg/kg i.p. days 1, 3, 6, 9, 12, 15 days): 0%
CA16 viral load in all detected tissues (RT-qPCR) ([4]; brain, lung, spine skeletal muscle, hind-limb muscle, vs DMSO, P < 0.05): completely decreased
tissue damage, H&E histology ([5]; EV71-infected spinal skeletal muscle and hind-limb muscle): significantly reduced the damage
mortality ([5]; EV71 CC063 intracerebral, 1-day-old mice, 1 mg/kg i.p. days 1, 3, 6, 9, 12, 15 days): 20%
EV71 viral load in spine skeletal muscle and hind-limb muscle (RT-qPCR) [5, 19]: completely decreased
EV71 viral loads in brain and lung (RT-qPCR) [5, 19]: moderately reduced
RNA synthesis activity of EV71 3Dpol [6]: inhibited the RNA synthesis activity of EV71 3D^pol in a dose-dependent manner
concentration that did not significantly affect cell viability (safe dose) [7]: 1 µM
CC50 at 48 h [8]: 3.24 µM
phosphorylation efficiency relative to deoxycytidine [9]: up to 3 fold
EC50 [10]: 13.4 nM
EC50 [11]: 1.55 nM
virions in the supernatant and viral titers ([12]; CA16, CA6, CVB3, EVD68, RD cells): suppressed by FNC in a dose-dependent manner
positive- and negative-strand EV RNA synthesis (RT-qPCR) ([12]; EV71, CA16, CA6, CVB3, EVD68, RD cells, 48 h): inhibited both positive- and negative-strand EV RNA synthesis
selectivity indices (CC50/EC50) against EVs ([12]; RD cells): good selectivity indices
EC50 ([12]; RD, read-out: EC50 against a variety of enteroviruses): 1.55 to 52.1 nM
suppression of EVs (VP1 protein expression, viral RNA levels, viral titers) ([12]; in vitro cell model): efficiently suppressed
EC50 [13]: 33.8 nM
safe dose [14]: 10 µM
EC50 [15]: 52.1 nM
virus titers in supernatants (plaque assay, CPE-based TCID50) ([16]; EV71-infected RD cells, increasing doses): continuously decreasing virus titers
EC50 ([16]; Enterovirus A, EV71, RD, 48 h, read-out: EC50 against EV71, RD cells, from reduced viral RNA level (RT-qPCR), 48 h): 16.9 nM
EV71 VP1 protein by Western blot ([16]; RD cells, 100 nM, 48 h postinfection): could not be detected
anti-EV71 activity, intracellular VP1 protein by Western blot ([16]; RD cells, MOI 0.1, 48 h treatment, 1 μM): obvious anti-EV71 activity
safe dose [17]: 100 µM
effect on RSV replication (viral proteins, RNA) [18]: no inhibitory effect
Kd [1]: 6 µM

— publication PMC7163137, “The Pyrimidine Analog FNC Potently Inhibits the Replication of Multiple Enteroviruses” (Journal of Virology, 2020)
